The values that follow come from patent US6723741B2, “Benzimidazoles and benzothiazoles and uses thereof” (Synaptic Pharmaceutical Corporation, priority 1996, dated 2004).

The structures appear in SMILES notation. Read-outs that look alike come from different tables or passages of the source.

Experiment [1] concerns the target T1, human α1A adrenergic receptor (Homo sapiens, UniProt P25100).
T1 construct: expressed in transfected cells
T1 sequence (P25100 1-572): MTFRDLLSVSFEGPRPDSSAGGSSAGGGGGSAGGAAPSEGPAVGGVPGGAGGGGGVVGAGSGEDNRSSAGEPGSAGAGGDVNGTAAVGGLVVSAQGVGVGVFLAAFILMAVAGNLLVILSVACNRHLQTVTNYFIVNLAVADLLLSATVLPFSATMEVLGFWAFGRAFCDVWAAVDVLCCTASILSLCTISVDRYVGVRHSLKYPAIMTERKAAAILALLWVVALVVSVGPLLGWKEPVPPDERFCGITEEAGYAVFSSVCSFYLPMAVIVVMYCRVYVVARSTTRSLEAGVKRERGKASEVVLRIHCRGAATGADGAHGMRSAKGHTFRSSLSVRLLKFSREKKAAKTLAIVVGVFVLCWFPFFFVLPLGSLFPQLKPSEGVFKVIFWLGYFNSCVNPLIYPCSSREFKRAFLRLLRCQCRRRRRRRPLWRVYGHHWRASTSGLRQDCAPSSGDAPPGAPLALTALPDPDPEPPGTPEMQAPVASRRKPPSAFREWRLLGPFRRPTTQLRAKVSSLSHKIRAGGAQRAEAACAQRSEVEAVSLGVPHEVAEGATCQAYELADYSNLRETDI
Kind of experiment: Radioligand binding assay, [3H]prazosin competition. Particulars: cloned human α1A (old nomenclature; = α1D), LM(tk-) cell membranes, read-out: pKi Alpha-1 A (converted). As for the experimental part:
Equilibrium competition binding assays were performed with membrane preparations from cultured LM(tk^−) cells stably transfected with the cloned human alpha adrenoreceptor subtypes except for α2b, which was expressed in Y-1 cells, using [^3H] prazosin for α1 receptors and [^3H] rauwolscine for α2 receptors. Further details of pharmacological evaluations of claimed compounds are described in Example 21.
The cloned human alpha-1 adrenergic receptor subtypes referred to throughout this application as α1A, α1B, and α1C have recently been assigned new subtype designations by the IUPHAR Nomenclature Committee as outlined in the 1995 Receptor and Ion Channel Nomenclature Supplement (Watson and Girdlestone, 1995). In the new nomenclature system the cloned human α1A receptor referred to herein was given the appellation “α1D,” while the cloned human α1C receptor referred to herein was given the appellation “α1A”. However, throughout this application and the supporting tables and figures the old nomenclature will be used to describe the cloned human alpha-1 adrenergic receptor subtypes. The old nomenclature is used throughout this application because stable cell lines expressing the cloned human alpha-1 adrenergic receptors were produced and deposited with the ATCC according to the Budapest Treaty for the Deposit of Microorganisms, under designations assigned before the nomenclature change.
The construct involved the ligation of partial overlapping human lymphocyte genomic and hippocampal cDNA clones: 5′ sequences were contained on a 1.2 kb SmaI-XhoI genomic fragment (the vector-derived BamHI site was used for subcloning instead of the internal insert-derived SmaI site) and 3′ sequences were contained on 1.3 kb XhoI-ClaI cDNA fragment (the ClaI site was from the vector polylinker). Stable cell lines were produced and selected as described above.
Transfected cells from culture flasks were scraped into 5 mL of 5 mM Tris-HCl, 5 mM EDTA, pH 7.5, and lysed by sonication. The cell lysates were centrifuged at 1000 rpm for 5 min at 4° C., and the supernatant was centrifuged at 30,000×g for 20 min at 4° C. The pellet was suspended in 50 mM Tris-HCl, 1 mM MgCl2, and 0.1% Ascorbic acid at pH 7.5. Binding of α2 antagonist [^3H] rauwolscine ([…]) to membrane preparations of LM(tk−) cells was done in a final volume of 0.25 mL and incubated at 37° C. for 20 min. Nonspecific binding was determined in the presence of 10 μM phentolamine. The reaction was stopped by filtration through GF/B filters using a cell harvester.

Experiment [2] addresses T2, human α2C adrenergic receptor (Homo sapiens, UniProt P18825).
T2 construct: The entire coding region of α2C (1383 bp), including 2 bp of 5′ UT and 400 bp of 3′ UT; expressed in transfected cells
T2 sequence (P18825 1-462): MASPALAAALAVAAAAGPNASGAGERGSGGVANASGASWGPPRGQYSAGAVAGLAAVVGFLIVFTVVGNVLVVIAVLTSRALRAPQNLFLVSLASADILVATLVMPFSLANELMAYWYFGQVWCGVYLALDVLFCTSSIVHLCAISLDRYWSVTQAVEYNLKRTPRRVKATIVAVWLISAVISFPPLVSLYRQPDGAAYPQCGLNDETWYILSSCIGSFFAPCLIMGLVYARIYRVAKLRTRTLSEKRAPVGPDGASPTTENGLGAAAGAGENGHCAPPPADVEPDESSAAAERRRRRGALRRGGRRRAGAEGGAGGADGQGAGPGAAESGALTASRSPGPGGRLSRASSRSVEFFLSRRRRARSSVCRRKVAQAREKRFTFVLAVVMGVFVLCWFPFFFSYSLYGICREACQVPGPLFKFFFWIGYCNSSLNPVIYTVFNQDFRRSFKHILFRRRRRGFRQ
The experiment can be described thus: Agonist activity: inhibition of forskolin-stimulated cAMP synthesis. It counts as cell-based. Particulars: for EC50: inhibition of forskolin-stimulated cAMP, stably transfected cells expressing human α2C, read-out: pEC50 Alpha-2 C (converted); for I.A (Intrinsic Activity) Alpha-2 C: maximum activity relative to maximum activity induced by norepinephrine, human α2C.

Experiment [3] deals with T3, human α2B adrenergic receptor (Homo sapiens, UniProt P18089).
T3 construct: expressed in transfected cells
T3 sequence (P18089 1-450): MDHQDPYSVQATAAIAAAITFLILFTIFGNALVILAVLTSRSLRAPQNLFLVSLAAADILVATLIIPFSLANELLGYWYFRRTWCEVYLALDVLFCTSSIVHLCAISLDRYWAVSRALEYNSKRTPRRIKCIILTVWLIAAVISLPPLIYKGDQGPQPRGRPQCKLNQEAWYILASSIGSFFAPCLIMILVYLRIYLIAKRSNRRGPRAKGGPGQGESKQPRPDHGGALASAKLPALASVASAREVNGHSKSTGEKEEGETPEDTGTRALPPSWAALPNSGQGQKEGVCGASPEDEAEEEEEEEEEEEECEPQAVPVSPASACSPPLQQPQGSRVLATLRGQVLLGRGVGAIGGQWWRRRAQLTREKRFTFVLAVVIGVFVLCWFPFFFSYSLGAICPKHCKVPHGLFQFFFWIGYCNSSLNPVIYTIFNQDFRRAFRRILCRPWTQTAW
Kind of experiment: Radioligand binding assay, [3H]rauwolscine competition.

`Brc1cc(NC2=NCCN2)cc2cc[nH]c12` [Example 2, 7-Bromo-5-(2-imidazolin-2-ylamino)indole]: the Ki in experiment [1] is 2.88 nM. In experiment [2], the EC50 was 0.407 nM and the “I.A (Intrinsic Activity) Alpha-2 C” value is recorded as 1.00. In experiment [3], this compound had a Ki of 2.88 nM.

With `N#Cc1cc(NC2=NCCN2)cc2cc[nH]c12` [Example 5, 7-Cyano-5-(2-imidazolin-2-ylamino)indole], the Ki in experiment [1] is 162 nM. In experiment [2], the EC50 was 0.589 nM and the “I.A (Intrinsic Activity) Alpha-2 C” value is given as 1.00. This compound also gave a Ki in experiment [3] of 15.5 nM.

Consider `CC(=O)c1cc(NC2=NCCN2)cc2cc[nH]c12` [Example 6, 7-Acetyl-5-(2-imidazolin-2-ylamino)indole], for which, in experiment [1], the Ki was 93.3 nM. Also, in experiment [2], the EC50 was 40.7 nM and the “I.A (Intrinsic Activity) Alpha-2 C” value is 0.90. The Ki in experiment [3] was 45.7 nM.

As for `c1nc2cc(NC3=NCCN3)ccc2s1` [Example 13, 5-(2-Imidazolin-2-ylamino)benzothiazole], in experiment [1], the Ki is 186 nM. In experiment [2], the EC50 was 0.603 nM and the “I.A (Intrinsic Activity) Alpha-2 C” value came out at 1.00. The compound further showed a Ki in experiment [3] of 4.57 nM.

Regarding `c1nc2ccc(NC3=NCCN3)cc2s1` [Example 14, 6-(2-Imidazolin-2-ylamino)benzothiazole], the Ki in experiment [1] is 1700 nM; in experiment [3] it was 14.1 nM. For the same compound, the “I.A (Intrinsic Activity) Alpha-2 C” value in experiment [2] is listed as 1.00.

For the compound `c1nc2ccc(NC3=NCCS3)cc2s1` [Example 15, 6-(2-Thiazolin-2-ylamino)benzothiazole], the Ki in experiment [1] was 6030 nM; in experiment [3] (cloned human α2B, Y-1 cell membranes, [3H]rauwolscine, read-out: pKi Alpha-2 B (converted)) it was 162 nM. Also, the “I.A (Intrinsic Activity) Alpha-2 C” value in experiment [2] turned out to be 0.88.
